Source: patent US12502383B2, “Pharmaceutical composition of cyclooxygenase-2 inhibitors” (THEMIS MEDICARE LIMITED, priority 2019, dated 2025)
Read-outs that look alike come from different tables or passages of the source.

Tests used:
[1] = cited from earlier work
[2] = in vivo; cited from earlier work
[3] = after oral and intravenous administration; cited from earlier work
[4] = cited from earlier work; remark: listed apart in the source
[5] = Solubilization of Etoricoxib in solubilizers; assay type: physicochemical
Method: The ratio of active to solubilizers between 1:35 to 1:135.71 gives good solubilization of coxib. Satisfactory compositions can be produced wherein ration of active to solubilizer is between 1:35 to 1:58.33. Etoricoxib 1.4 mg ie 0.14% w/v can be solubilized in Twin 80, 8% w/v and Transcutol 3% w/v. It can also be solubilized in Ethanol and Tween 8% w/v each and Transcutol 3% w/v. One can consider it as 3 solubilizers or 2 solubilizers and one solvent.

Dog = conditions: intravenous: Dog; cited from earlier work
mouse = conditions: cited from earlier work
rabbit = conditions: intravenous: rabbit; cited from earlier work

Row | Etoricoxib solubilized ([5]; in Ethanol and Tween 8% w/v each and Transcutol 3% w/v) | Etoricoxib solubilized ([5]; in Twin 80, 8% w/v and Transcutol 3% w/v) [mg] | Compound | Solubility in anhydrous ethanol [1] | Solubility in methylene chloride [1] | Solubility in water [1] | solubility in DMF [1] | solubility in DMSO [1] | solubility in ethanol [1] | drug eliminated unchanged [2] [%] | Bioavailability [3] [%] | protein binding [4] | Solubility in 2-propanol [1] | Solubility in isopropyl acetate, ethanol and toluene [1] | Solubility in methanol, tetrahydrofuran, dimethyl sulfoxide, methyl ethyl ketone, dimethyl formamide, and chloroform [1] | LD50 (Dog) [mL/kg] | LD50 (mouse; intravenous: mouse) [µL/kg] | LD50 (mouse; subcutaneous: mouse) [µL/kg] | LD50 (rabbit) [µL/kg]
1 |  |  | Cc1ccc(-c2cc(C(F)(F)F)nn2-c2ccc(S(N)(=O)=O)cc2)cc1 [Celecoxib, 4-[5-(4-methylphenyl)-3-(trifluoromethyl)pyrazol-1-yl]benzenesulfonamide] | freely soluble to soluble | soluble | practically insoluble | approximately 25 mg/ml | approximately 16.6 mg/ml | approximately 25 mg/ml | < 3 |  |  |  |  |  |  |  |  | 
2 | solubilized | 1.4 | Cc1ccc(-c2ncc(Cl)cc2-c2ccc(S(C)(=O)=O)cc2)cn1 [Etoricoxib] |  |  | practically insoluble |  |  |  |  | 100 | about 92% | sparingly soluble | soluble | freely soluble |  |  |  | 
3 |  |  | CCOCCOCCO [Transcutol, Diethylene Glycol Monoethyl Ether] |  |  |  |  |  |  |  |  |  |  |  |  | 3 | 4300 | 5500 | 2500
